# US6818212B2, “Antimicrobial composition containing a haloperoxidase, a hydrogen peroxide source, a halide source and an ammonium source” (Novozymes A/S, priority 1997, dated 2004)
# How the values were obtained:
# Format in all cases: cell-based
# [1] = tested on: Staphylococcus epidermidis DSM 20 042; assay: Bactericidal activity of haloperoxidase with ammonium halides vs potassium/sodium halides as electron donors, Example 3; conditions: for bactericidal activity (possible): ammonium halide salt as electron donor, summary of Table 1; for Log reduction in cell number: haloperoxidase 1 mg/l, 0.5 mM H2O2, pH 6.0, 15 min 40° C.
# Experimental: (§1) The bactericidal activity was determined by incubation in Malthus. The detection times measured by the Malthus instrument were converted to cfu/ml by a calibration curve.
# (§2) Either direct or indirect Malthus measurements were used when enumerating total survival cells (Malthus Flexi M2060, Malthus Instrument Limited). By the direct measurements, the cell metabolism was determined by conductance measurements in the growth substrate. By the indirect measurements, 3 ml of growth medium was transferred to the outer chamber of the indirect Malthus cells, and 0.5 ml of sterile KOH (0.1 M) was transferred to the inner chamber. The cell suspensions were after enzyme treatment transferred to the outer chamber of the Malthus cell. As cells are growing in the outer chamber they produce CO2 which will dissolve in the KOH in the inner chamber and thereby change the conductance of the KOH. The amount of CO2 formed by the respiring cells surviving the enzyme treatment was used for estimating the number of viable cells. When the conductance change is measurable by the Malthus, a detection time (dt) will be recorded. The dt's were converted to colony counts by use of a calibration curve relating cfu/ml to dt (FIG. 1).
# The antibacterial activity of a haloperoxidase (1 mg/l) was tested in MES-buffer (2-[N-morpholino] ethanesulfonic acid) (pH 6.0) against Staphylococcus epidermidis DSM 20 042 with ammonium iodide, ammonium chloride or ammonium bromide as electron donors, and hydrogen peroxide was added as electron acceptor giving the final concentration 0.5 mM. The cells (approximately 10^6 cfu/ml) were incubated with enzyme for 15 min at 40° C. The bactericidal activity was determined by incubation in Malthus (see Example 1).
# [2] = tested on: Staphylococcus epidermidis DSM 20 042; assay: Bactericidal activity of haloperoxidase with iodide or bromide, with or without NH4+, Example 2; conditions: haloperoxidase 1 mg/l
# Experimental: as §1, §2
# The antibacterial activity of a haloperoxidase (1 mg/l) was tested in MES-buffer (2-[N-morpholino] ethanesulfonic acid) (pH 6.0) against Staphylococcus epidermidis DSM 20 042 with potassium iodide and potassium bromide as electron donor, and hydrogen peroxide (to a final concentration of 0.5 mM) was added as electron acceptor in the presence of NH4^+. The cells (approximately 10^6 cfu/ml) were incubated with enzyme for 15 min at 40° C. The bactericidal activity was determined by incubation in Malthus (see Example 1).
# [3] = tested on: Staphylococcus epidermidis DSM 20 042; assay: Bactericidal activity of haloperoxidase (rCvP) system, Malthus detection, Example 1; conditions: haloperoxidase 1 mg/l, 0.5 mM H2O2, pH 6
# Experimental: (§3) The antibacterial activity of a haloperoxidase was tested in MES-buffer (2-[N-morpholino] ethanesulfonic acid)(pH 6.0) against Pseudomonas aeruginosa ATCC 10146 and Staphylococcus epidermidis DSM 20 042 with sodium chloride as electron donor, and hydrogen peroxide was added as electron acceptor in the presence of NH4+. The cells (approximately 10^6 cfu/ml) were incubated with the enzyme for 15 min at 40° C.
# as §1, §2
# (§4) Hydrogen peroxide was added to a final concentration of 0.5 mM.
# [4] = tested on: Pseudomonas aeruginosa ATCC 10146; assay: as above; conditions: haloperoxidase 1 mg/l, 0.5 mM H2O2, pH 6
# Experimental: as §3, §1, §2, §4
# [5] = tested on: Staphylococcus epidermidis DSM 20 042; assay: Bactericidal activity of haloperoxidase with chloride and ethanolamine, HEPES pH 7.0, Example 4; conditions: haloperoxidase 1 mg/L, chloride 80 mM, ethanolamine 2.5 mM, 0.5 mM H2O2, pH 7.0
# Experimental: as §1
# as §2, with “The amount of CO2 formed by the respiring cells surviving the enzyme treatment was used for estimating the number of viable cells.” left out, “The dt's were converted to colony counts by use of a calibration curve relating cfu/ml to dt (FIG. 1).” left out
# The antibacterial activity of Curvularia verruculosa haloperoxidase (1 mg/L) was tested in HEPES-buffer (Sigma H3375)(pH 7.0) against Staphylococcus epidermidis DSM 20 042 with chloride (80 mM) as electron donor combined with ethanolamine (2.5 mM), and hydrogen peroxide was added as electron acceptor giving the final concentration 0.5 mM. […] The bactericidal activity was determined by incubation in Malthus (see Example 1).
# [6] = 0.5 mM H2O2, pH 6.0, no ammonium
structure (smiles),measurement,setting,value
"Br.N [BrNH4, ammonium bromide]",bactericidal activity (possible),[1],100%
same,Log reduction in cell number,[1]; halide 4 mM,3.7 log cfu/ml
same,Log reduction in cell number,[1]; halide 8 mM,6.2 log cfu/ml
"Cl.N [ClNH4, ammonium chloride]",bactericidal activity (possible),[1],100%
same,Log reduction in cell number,[1]; halide 25 mM,6.2 log cfu/ml
same,Log reduction in cell number,[1]; halide 50 mM,6.2 log cfu/ml
"I.N [INH4, ammonium iodide]",bactericidal activity (possible),[1],100%
same,Log reduction in cell number,[1]; halide 0.21 mM,6.2 log cfu/ml
same,Log reduction in cell number,[1]; halide 0.5 mM,6.2 log cfu/ml
"[Br-].[K+] [KBr, potassium bromide]",Log reduction in cell number,[1]; halide 4 mM,2.8 log cfu/ml
same,Log reduction in cell number,[1]; halide 8 mM,5.4 log cfu/ml
same,bromide concentration needed for 100% bactericidal activity,[2]; [6],> 10 mM
"[I-].[K+] [KI, potassium iodide]",Log reduction in cell number,[1]; halide 0.25 mM,5.1 log cfu/ml
same,Log reduction in cell number,[1]; halide 0.5 mM,6.1 log cfu/ml
same,iodide concentration for 100% bactericidal activity,"[2]; 0.5 mM H2O2, pH 6.0, ammonium added (FIG. 3)",0.05-0.1 mm
same,iodide concentration for 100% antibacterial activity,[2]; [6],about 0.2 mM
"[Cl-].[Na+] [NaCl, sodium chloride]",Log reduction in cell number,[1]; halide 25 mM,0.5 log cfu/ml
same,Log reduction in cell number,[1]; halide 50 mM,0.8 log cfu/ml
same,NaCl concentration at which antibacterial activity was observed,[3],above 20 mM
same,NaCl concentration at which plateau of antibacterial activity was reached,[3],approximately 100 mM
same,NaCl concentration at which antibacterial activity was observed,[4],above 20 mM
same,NaCl concentration at which plateau of antibacterial activity was reached,[4],approximately 100 mM
NCCO [ethanolamine],kill,[5],100%
